Source: patent US7842690B2, “Cyclic hydroxylamine as psychoactive compounds” (BTG International Limited, priority 2003, dated 2010)
Counter-ions that a name gives are not always drawn.

Experiments:
Assay type in all cases: in vivo
[1] = tested on: Male rats of the Wistar strain; assay: Despair test (forced swim); details: 50 mg/kg IP, injections 24, 5 and 1 hour prior to test, 5-min test, mean ± S.E.M.
[2] = tested on: Male rats of the Wistar strain; assay: Reserpine-induced changes in open field behaviour; details: reserpine 0.1 mg/kg SC daily for 14 days, acute 50 mg/kg IP 1 h prior to open field test, 5-min test, mean ± S.E.M.
Protocol: Rats treated with the compound of Example 1 were compared to either rats treated with the classical antidepressant, clomipramine or controls in the despair test (forced swim). The same groups were also tested for the reserpine-induced changes in open field behaviour.
Male rats of the Wistar strain (purchased from Charles River, Italy) weighing 220-240 g were used throughout all experiments. For at least 1 week prior to the experiment, the rats were housed four to a cage at a constant temperature of 21° C., and under a 12-h light/dark cycle (lights on between 08:00 and 20:00), with food and water available ad libitum.
An acute IP injection of clomipramine hydrochloride (50 mg/kg) or of the compound of Example 1 (0.2 and 0.5 mg/kg) or physiological saline was made in animals subjected to the reserpine-induced changes in the open field test (the injection was made together with the last reserpine administration, e.g. 1 h prior to the open field test).
All animals were gently manipulated by experienced facilities' keepers avoiding any environmental or physical stress. Rats subjected to drugs or physiological saline administration received an injection of a 1-mL standard volume of solution with a 23-gauge stainless steel needle of 31 mm length (for […]) or 21 mm length (for SC injections). The animals were randomly assigned to any treatment group and were used only once in the behavioural experiments.
Reserpine-induced changes in open field behaviour was studied according to the method described in Naunyn-Schmiedeberg's Arch. Pharmacol. 293: 109-114 (Vetulani et al., 1976). Reserpine (Sigma, USA) was dissolved in physiological saline and injected daily for 14 days at the dose of 0.1 mg/kg subcutaneously (SC). A period of 1 hour after the last injection of reserpine, animals were subjected to the open field test. This consisted of the measure of ambulation and rearing of the rat in a circular area divided into 17 equal sections and lighted by a centrally suspended lamp. The areas explored by the rat at least with anterior paws was recorded in 5 min test. The episodes of rearing towards the centre or the walls were also recorded in 5 min test.
All data were analysed using univariate random design analysis of variance (one-way ANOVA) and the post hoc Dunnett's test for multiple comparisons. A P-value of 0.05 or less was considered as indicative of a significant difference.

BKW male albino mice = assay: Black and white box test (Example 10); details: 5-min period; for TB = time in white section: signed value
rats [3] = assay: Elevated plus maze (X-maze) in rats; details: 5-min period
Source text: The X-maze is constructed from Perspex® and comprises four arms (2 open, 2 closed), each 50 cm long by 9.5 wide and 40 high (closed, arms only) connected by a centre square (9.5×9.5). The open arm has a small lip (3 mm) to assist in the retention of the rat on the arm. The apparatus was housed in a room under subdued lighting conditions.
This model is based on the observation of spontaneous activity of rodents placed in an aversive environment produced by height and often spaces. […] Anxiolytic drugs increase the exploratory activity and the number of entries into the open arms. Rats were allowed at least 1 hour to acclimatise to the environment before testing commenced. Drug treatments were given IP in a pseudo-random, blind design, 40 minutes before behavioural testing, as appropriate. Rats were placed onto the centre square of the X-maze facing a specified open arm, and its behaviour was recorded by remote video over a 5 minute experimental period. The behavioural parameters were subsequently assessed by technicians reviewing the videotape and included: entries into each arm type, time spent on each arm type, rearing, stretch attend postures and head dips.

mouse = assay: Black and white box test (Example 14); details: for Parameter 1: Latency L (initial movement from the white to the black area), Mean / Parameter 2: Time spent in White area (TW), Mean: 5-min recording; for Parameter 3: Transitions/5 min (T), Mean: transitions between the two compartments; for Parameter 4: Total Activity: Atot, Mean: white and black compartments
Protocol: The characteristic action of anxiolytic agents is to cause a redistribution of exploratory activity and time spent in the white section.
Each mouse was placed into the centre of the white, brightly lit area bacldng the opening between the B/W compartments. Animals behaviour was recorded by a remote video camera for 5 minutes. The recordings were subsequently evaluated on the TV by two operators unaware of drug treatment. The following behavioural parameters were recorded: • a) the latency of the initial movement from the white to the black area: L (sec); • b) the time spent in the white area TW (sec); the time spent in the black area is calculated by the difference: […] (sec); • c) the number of transitions between the two compartments T (No./5 min); • d) the total activity in the white and black compartments, Atot (No./5 min); • e) the total activity in the white area throughout the time spent in the white area: • AtotW/TW (No./sec); • f) the total activity in the black area throughout the time spent in the black area: AtotB/TB (No./sec); • g) the total number of exploratory rearings: Rtot (No./5 min); • h) the total number of line crossings: Ctot (No./5 min); • i) the number of exploratory rearings in the white section RW/TW (No./sec); • j) the number of line crossings in the white section CW/TW (No./sec).
Each group was composed by 8 animals.

rats [4] = assay: Escape deficit test (learned helplessness), antidepressant activity; details: rats treated IP for 15 days, unavoidable stress 16 h and escape test 24 h after last dosing; out of 30 trials; dose not given
Protocol: The “Escape deficit” test that derives from the classic paradigm of “learned helplessness” was used, as described by Meloni et al. in Pharmacol. Biochem. Behav. 46, 423-6 (1993) and Gambarana et al. in Behav. Pharmacol. 6, 66-73 (1995) and Neuropsychopharmacol. 21, 247-57 (1999). Exposure to an unavoidable stress induces […], which, after 24 hours, makes the rats unable to escape from a nociceptive stimulus. Rats exposed to unavoidable stress make 0-5 escapes out of 30 trials, while naïve rats realise 26-30 escapes. Classical anti-depressives prevent the occurrence of the escape deficit after chronic treatment (15 days).
Rats were treated intra-peritoneally (IP) for 15 days, and then submitted to the unavoidable stress (16 hours after the last dosing) prior to being subjected to the escape test (24 hours after the last dosing).

[5] = 1.25 mg/kg IP 40 min before test
[6] = IP 40 min before test, dose not given
[7] = 0.1 mg/kg IP 40 min before test
[8] = 0.125 mg/kg IP 40 min before test

CN(C)CCCN1c2ccccc2CCc2ccc(Cl)cc21 [Clomipramine, clomipramine hydrochloride, reference compound]
Duration of Immobility [1]: 105.95 ± 9.13 | No. of Floor Units (ambulation) [2]: 84.6 ± 8.1 | Rearing Episodes [2]: 2.4 ± 0.2

CN1C(=O)CN=C(c2ccccc2)c2cc(Cl)ccc21 [Diazepam]
Atot = Total exploratory activity (BKW male albino mice; [5]): +46.7 | CB/TB = crossings in the white compartment/time in white (BKW male albino mice; [5]): +0.08 | CN/TN = crossings in the black compartment/time in black (BKW male albino mice; [5]): +0.1 | Ctot = total number of crossings (BKW male albino mice; [5]): +30.7 | FI = Initial potency (BKW male albino mice; [5]): +12.7 | RB/TB = rearings in the white compartment/time in white (BKW male albino mice; [5]): +0.06 | RN/TN = rearings in the black compartment/time in black (BKW male albino mice; [5]): +0.09 | Rtot = Total number of rearings (BKW male albino mice; [5]): +21.2 | TB = time in white section (BKW male albino mice; [5]): +33.2 | % time spent in open arms (rats [3]; [6]): 25 ± 5% | No. of entries in open arms (rats [3]; [6]): 4 ± 0.6 | Parameter 5: Total Activity in white area: AtotW/TW, Mean (mouse; 1.25 mg/kg): .723 No./sec | Parameter 6: Total Activity in black area: AtotB/TB, Mean (mouse; 1.25 mg/kg): .723 No./sec | Parameter 7: Rtot (total number of exploratory rearings), Mean (mouse; 1.25 mg/kg): 68.750 No./5 min | Parameter 8: Ctot (total number of line crossings), Mean (mouse; 1.25 mg/kg): 144.375 No./5 min | Parameter 9: RW/TW (exploratory rearings in the white section), Mean (mouse; 1.25 mg/kg): .124 No./sec | Parameter 10: CW/TW (line crossings in the white section), Mean (mouse; 1.25 mg/kg): .599 No./sec | Parameter 1: Latency L (initial movement from the white to the black area), Mean (mouse; 1.25 mg/kg): 13.750 s | Parameter 2: Time spent in White area (TW), Mean (mouse; 1.25 mg/kg): 97.750 s | Parameter 3: Transitions/5 min (T), Mean (mouse; 1.25 mg/kg): 13.375 No./5 min | Parameter 4: Total Activity: Atot, Mean (mouse; 1.25 mg/kg): 213.125 No./5 min

ON1CCOCC1c1ccccc1 (centres unmarked) [Example P1, 3-phenylmorpholin-4-ol]
Parameter 5: Total Activity in white area: AtotW/TW, Mean (mouse; 0.1 mg/kg): .608 No./sec | Parameter 6: Total Activity in black area: AtotB/TB, Mean (mouse; 0.1 mg/kg): .652 No./sec | Parameter 7: Rtot (total number of exploratory rearings), Mean (mouse; 0.1 mg/kg): 60.375 No./5 min | Parameter 8: Ctot (total number of line crossings), Mean (mouse; 0.1 mg/kg): 137.000 No./5 min | Parameter 9: RW/TW (exploratory rearings in the white section), Mean (mouse; 0.1 mg/kg): .155 No./sec | Parameter 10: CW/TW (line crossings in the white section), Mean (mouse; 0.1 mg/kg): .454 No./sec | Parameter 1: Latency L (initial movement from the white to the black area), Mean (mouse; 0.1 mg/kg): 20.125 s | Parameter 2: Time spent in White area (TW), Mean (mouse; 0.1 mg/kg): 116.750 s | Parameter 3: Transitions/5 min (T), Mean (mouse; 0.1 mg/kg): 19.500 No./5 min | Parameter 4: Total Activity: Atot, Mean (mouse; 0.1 mg/kg): 197.375 No./5 min

ON1CCOCC1Cc1ccccc1 (centres unmarked) [Example P2, 3-benzylmorpholin-4-ol]
Parameter 5: Total Activity in white area: AtotW/TW, Mean (mouse; 0.1 mg/kg): .519 No./sec | Parameter 6: Total Activity in black area: AtotB/TB, Mean (mouse; 0.1 mg/kg): .571 No./sec | Parameter 7: Rtot (total number of exploratory rearings), Mean (mouse; 0.1 mg/kg): 60.250 No./5 min | Parameter 8: Ctot (total number of line crossings), Mean (mouse; 0.1 mg/kg): 108.375 No./5 min | Parameter 9: RW/TW (exploratory rearings in the white section), Mean (mouse; 0.1 mg/kg): .099 No./sec | Parameter 10: CW/TW (line crossings in the white section), Mean (mouse; 0.1 mg/kg): .420 No./sec | Parameter 1: Latency L (initial movement from the white to the black area), Mean (mouse; 0.1 mg/kg): 19.625 s | Parameter 2: Time spent in White area (TW), Mean (mouse; 0.1 mg/kg): 59.250 s | Parameter 3: Transitions/5 min (T), Mean (mouse; 0.1 mg/kg): 10.000 No./5 min | Parameter 4: Total Activity: Atot, Mean (mouse; 0.1 mg/kg): 168.625 No./5 min

ON1CCCCC1c1ccccc1 (centres unmarked) [Example P5, 2-phenylpiperidin-1-ol]
Parameter 5: Total Activity in white area: AtotW/TW, Mean (mouse; 0.1 mg/kg): .571 No./sec | Parameter 6: Total Activity in black area: AtotB/TB, Mean (mouse; 0.1 mg/kg): .708 No./sec | Parameter 7: Rtot (total number of exploratory rearings), Mean (mouse; 0.1 mg/kg): 69.500 No./5 min | Parameter 8: Ctot (total number of line crossings), Mean (mouse; 0.1 mg/kg): 127.500 No./5 min | Parameter 9: RW/TW (exploratory rearings in the white section), Mean (mouse; 0.1 mg/kg): .123 No./sec | Parameter 10: CW/TW (line crossings in the white section), Mean (mouse; 0.1 mg/kg): .448 No./sec | Parameter 1: Latency L (initial movement from the white to the black area), Mean (mouse; 0.1 mg/kg): 20.625 s | Parameter 2: Time spent in White area (TW), Mean (mouse; 0.1 mg/kg): 105.125 s | Parameter 3: Transitions/5 min (T), Mean (mouse; 0.1 mg/kg): 14.750 No./5 min | Parameter 4: Total Activity: Atot, Mean (mouse; 0.1 mg/kg): 197.000 No./5 min

ON1CCCCC1Cc1ccccc1 (centres unmarked) [Example P6, 2-benzylpiperidin-1-ol]
Parameter 5: Total Activity in white area: AtotW/TW, Mean (mouse; 0.1 mg/kg): .705 No./sec | Parameter 6: Total Activity in black area: AtotB/TB, Mean (mouse; 0.1 mg/kg): .835 No./sec | Parameter 7: Rtot (total number of exploratory rearings), Mean (mouse; 0.1 mg/kg): 75.625 No./5 min | Parameter 8: Ctot (total number of line crossings), Mean (mouse; 0.1 mg/kg): 153.750 No./5 min | Parameter 9: RW/TW (exploratory rearings in the white section), Mean (mouse; 0.1 mg/kg): .190 No./sec | Parameter 10: CW/TW (line crossings in the white section), Mean (mouse; 0.1 mg/kg): .515 No./sec | Parameter 1: Latency L (initial movement from the white to the black area), Mean (mouse; 0.1 mg/kg): 14.500 s | Parameter 2: Time spent in White area (TW), Mean (mouse; 0.1 mg/kg): 152.125 s | Parameter 3: Transitions/5 min (T), Mean (mouse; 0.1 mg/kg): 24.250 No./5 min | Parameter 4: Total Activity: Atot, Mean (mouse; 0.1 mg/kg): 229.375 No./5 min

cis-1,2,3,4,5,6a,7,8,9,10a,10b-dodeca-1,4-oxazino-[3′,4′:2,3]benzo[d]isoxazol-4-one [Comparative Compound A]
Atot = Total exploratory activity (BKW male albino mice; [7]): +53.7 | CB/TB = crossings in the white compartment/time in white (BKW male albino mice; [7]): +0.01 | CN/TN = crossings in the black compartment/time in black (BKW male albino mice; [7]): +0.08 | Ctot = total number of crossings (BKW male albino mice; [7]): +19.1 | FI = Initial potency (BKW male albino mice; [7]): +8.1 | PT = Total passages through the partition (BKW male albino mice; [7]): +4.1 | RB/TB = rearings in the white compartment/time in white (BKW male albino mice; [7]): +0.04 | RN/TN = rearings in the black compartment/time in black (BKW male albino mice; [7]): +0.13 | Rtot = Total number of rearings (BKW male albino mice; [7]): +23.9 | TB = time in white section (BKW male albino mice; [7]): +52.1 | % time spent in open arms (rats [3]; [8]): 21 ± 11% | No. of entries in open arms (rats [3]; [8]): 3 ± 1.1 | No. of escapes (rats [4]): 3.5 ± 0.9
